Experimental data published in patent publication US20220096431A1, “PHARMACEUTICAL COMPOSITION AND METHOD FOR PREVENTING, TREATING AND DIAGNOSING A NEURODEGENERATIVE DISEASE” (BUDDHIST TZU CHI MEDICAL FOUNDATION, priority 2020, published 2022).
Entries after “also recorded” stand apart in the source; their conditions may differ.

Columns and labels:
[1] = tested on: Ts-21 iPSCs (neurons with Alzheimer's disease symptoms); experiment: Gene microarray analysis of n-BP-treated Ts-21 iPSCs; assay type: cell-based, human
Source text: To examine the mechanism by which n-BP regulated miR expression, n-BP-treated Ts-21 iPSCs were subjected to gene microarray analysis. […] The 4 predicted binding energy between lnc-CYP3A43-2 and miR-29b-2-5p are the lowest (−11.49 Kcal/mol) among these four lncRNA and the predicted target sequence between lnc-CYP3A43-2 and miR-29b-2-5p are shown in FIG. 6G.
For example, ATP6V0D2 and IST1 are autophagy-related genes, and the expression levels thereof increase by 30.07 times and 15.72 times, respectively, after administration of n-butylidenephthalide, while genes related to inflammation including NT5E, STAP1, DEC1, ADAMDEC1 have their expression levels reduced by 12.6, 12.79, 28.35 and 43.55 times, respectively.

[2] = tested on: 3xTg transgenic mice; experiment: Amyloid accumulation in the brain of 3xTg transgenic mice, single and combined treatment (FIG. 11); assay type: in vivo; settings: 3xTg mice; 60 mg/kg n-butylidenephthalide, 200 mg/kg vitamin C, alone or combined; vs olive oil control
[3] = tested on: Aβ1-42; experiment: ELISA of Aβ1-42 in the medium of Ts-21 iPSCs; assay type: cell-based, human; settings: 100 μM n-BP
[4] = tested on: neurons differentiated from trisomy 21-iPSC; experiment: Aβ aggregation, phosphorylated Tau and miRNA in neurons differentiated from Ts21-iPSC; assay type: cell-based, human
Source text: The neurons differentiated from the induced pluripotent stem cells produce hyperphosphorylated Tau (AT8). Excessive expression of AT8 affects winding signals and nutrient transmission of neurons; Aβ 1-42 is the main component of amyloid accumulation; microtubule-associated protein (microtubule-associated protein 2, MAP2) is a marker of neurons which mainly maintains the stability of dendritic neurons; tubulin (neuron-specific class III β-tubulin, TuJ1) is also a marker of neurons.
By genetic engineering, the four transcription factors Oct-4, Sox-2, c-Myc, and Klf-4 were delivered into adult cells and reverse-transcribed the cells into induced pluripotent stem cells (iPSC) carrying trisomy 21(Ts21) gene mutation.

[5] = tested on: 3xTg AD mice; experiment: Immunostaining with Aβ1-42 antibody of brain sections; assay type: in vivo
Procedure: FIGS. 8D and 8E show the result of immunostaining with Aβ1-42 antibody to detect amyloid deposition in the brain. Brain sections were selected at −2.2 mm posterior to bregma. Red dot indicated Aβ1-42 plaque accumulation. n=5 for B6 mice and 3xTg-60 mg/kg n-BP group. n=4 for 3xTg vehicle group. n=6 for […]. Scale bars represent 1 mm. *p-value<0.05, **p-value<0.01 (Student's t-test).
It was observed that AP accumulation was absent in the hippocampus of B6 mice but present in that of 3xTg AD mice. […] Specifically, immunostaining was used to detect Aβ1-42 accumulation in the hippocampus of 14-month-old 3xTg AD mice.

[6] = tested on: C6-C99 cells; experiment: Flow cytometry of C6-C99 cells (cumate-induced fluorescence); assay type: cell-based; settings: 100 μM n-BP
Procedure: Red peak, fluorescence of C6-C99 cells without cumate activation (background). Green peak, with cumate. Blue peak, with n-BP.
Then, C6-C99 cells were used to explore the effect of 100 μM n-butylidenephthalide (n-BP) on the expressions of miR-29b-2-5p, PSEN1, and Aβ1-42. […] Also shown in FIGS. 4G to 4I are the results of using miR-29b-2-5p inhibitor to evaluate whether n-BP inhibited PSEN1 and Aβ1-42 expression through miR-29b-2-5p. Specifically, miR-29b-2-5p inhibitor was transfected into C6-C99 cells and examined the inhibitory effect of n-BP treatment on PSEN1 and Aβ1-42 expression. It was observed that the addition of the miR-29b-2-5p inhibitor to C6-C99 cells abolished the 100 μM n-BP induced decrease in PSEN1 and Aβ1-42 expression.

[7] = tested on: miR-29b-2-5p and PSEN1 expression in Ts-21 iPSCs; experiment: Real-time PCR of miR-29b-2-5p and PSEN1 in Ts-21 iPSCs; assay type: cell-based, human; settings: 100 μM n-BP
Source text: FIGS. 6A and 6B show the RT-qPCR analysis result of expression levels of miR-29b-2-5p/miR-9-5p and PSEN1/β-actin with or without […] n-BP. n=3 for each group.

[8] = neurons with Alzheimer's disease symptoms, autophagy-related gene
[9] = neurons with Alzheimer's disease symptoms, inflammation-related gene

## CCCC=C1OC(=O)c2ccccc21 [n-BP, n-butylidenephthalide]
[1]; gene A 21 P0014752, neurons with Alzheimer's disease symptoms
  Multiple of change: 17.29
[1]; gene ADAMDECI, neurons with Alzheimer's disease symptoms
  Multiple of change: −43.55
[1]; gene ATP6VOD2, neurons with Alzheimer's disease symptoms
  Multiple of change: 30.07
[1]; gene BG182298, neurons with Alzheimer's disease symptoms
  Multiple of change: −11.75
[1]; gene CTLA4, neurons with Alzheimer's disease symptoms
  Multiple of change: 29.78
[1]; gene DECI, neurons with Alzheimer's disease symptoms
  Multiple of change: −28.35
[1]; gene EN ST00000442006, neurons with Alzheimer's disease symptoms
  Multiple of change: −26.17
[1]; gene EN ST00000552046, neurons with Alzheimer's disease symptoms
  Multiple of change: −38.01
[1]; gene EN ST00000589476, neurons with Alzheimer's disease symptoms
  Multiple of change: −26.08
[1]; gene ENST00000427341, neurons with Alzheimer's disease symptoms
  Multiple of change: 36.49
[1]; gene ENST00000444130, neurons with Alzheimer's disease symptoms
  Multiple of change: 21.29
[1]; gene ENST00000496217, neurons with Alzheimer's disease symptoms
  Multiple of change: 50.33
[1]; gene ENST00000503666, neurons with Alzheimer's disease symptoms
  Multiple of change: 47.83
[1]; gene ENST00000554445, neurons with Alzheimer's disease symptoms
  Multiple of change: 27.81
[1]; gene ENST00000556397, neurons with Alzheimer's disease symptoms
  Multiple of change: 30.44
[1]; gene GATA3, neurons with Alzheimer's disease symptoms
  Multiple of change: 10.76
[1]; gene ISTI, neurons with Alzheimer's disease symptoms
  Multiple of change: 15.72
[1]; gene Inc-DCTD-2, neurons with Alzheimer's disease symptoms
  Multiple of change: 9.25
[1]; gene Inc-RP11-766F14.2.1-1, neurons with Alzheimer's disease symptoms
  Multiple of change: −34.38
[1]; gene LOC100131532, neurons with Alzheimer's disease symptoms
  Multiple of change: 47.19
[1]; gene LOC101060106, neurons with Alzheimer's disease symptoms
  Multiple of change: 22.27
[1]; gene LOC101928280, neurons with Alzheimer's disease symptoms
  Multiple of change: −43.14
[1]; gene LOC101928885, neurons with Alzheimer's disease symptoms
  Multiple of change: 21.40
[1]; gene MBOATI, neurons with Alzheimer's disease symptoms
  Multiple of change: −4.65
[1]; gene NCFIB, neurons with Alzheimer's disease symptoms
  Multiple of change: 34.03
[1]; gene NT5E, neurons with Alzheimer's disease symptoms
  Multiple of change: −12.60
[1]; gene SAP30L-AS1, neurons with Alzheimer's disease symptoms
  Multiple of change: 5.80
[1]; gene SH3RF3, neurons with Alzheimer's disease symptoms
  Multiple of change: 23.23
[1]; gene SPANXN3, neurons with Alzheimer's disease symptoms
  Multiple of change: 23.24
[1]; gene STAPI, neurons with Alzheimer's disease symptoms
  Multiple of change: −12.79
[1]; gene TAC4, neurons with Alzheimer's disease symptoms
  Multiple of change: 12.64
[1]; gene TDRD5, neurons with Alzheimer's disease symptoms
  Multiple of change: 31.41
[1]; gene THC2717143, neurons with Alzheimer's disease symptoms
  Multiple of change: 29.19
[1]; gene TMC3-AS1, neurons with Alzheimer's disease symptoms
  Multiple of change: 6.53
[1]; gene TSKS, neurons with Alzheimer's disease symptoms
  Multiple of change: 8.21
[1]; gene TTTY14, neurons with Alzheimer's disease symptoms
  Multiple of change: −22.89
[1]; gene XLOC 12 011873, neurons with Alzheimer's disease symptoms
  Multiple of change: 6.35
[1]; gene lnc-AL450307.1-1, neurons with Alzheimer's disease symptoms
  Multiple of change: −56.05
[1]; gene lnc-C50rf49-2, neurons with Alzheimer's disease symptoms
  Multiple of change: 34.90
[1]; gene lnc-CYP3A43-2, neurons with Alzheimer's disease symptoms
  Multiple of change: −60.06
[1]; gene lnc-FZDIO-3, neurons with Alzheimer's disease symptoms
  Multiple of change: 39.19
[1]; gene lnc-ILIRI-1, neurons with Alzheimer's disease symptoms
  Multiple of change: −39.19
[1]; gene lnc-KCNC2-4, neurons with Alzheimer's disease symptoms
  Multiple of change: −8.92
[1]; gene lnc-KCNG3-1, neurons with Alzheimer's disease symptoms
  Multiple of change: 29.33
[1]; gene lnc-KHDRBS3-9, neurons with Alzheimer's disease symptoms
  Multiple of change: 27.98
[1]; gene lnc-P2RY2-3, neurons with Alzheimer's disease symptoms
  Multiple of change: −105.51
[1]; gene lnc-PGPEPIL-I, neurons with Alzheimer's disease symptoms
  Multiple of change: 35.28
[1]; gene lnc-PTGES-I, neurons with Alzheimer's disease symptoms
  Multiple of change: 28.50
[1]; gene lnc-USP16-7, neurons with Alzheimer's disease symptoms
  Multiple of change: 31.72
[1]; gene lnc-ZBTB7C-1, neurons with Alzheimer's disease symptoms
  Multiple of change: −60.03
[1]; n-BP-treated Ts-21 iPSCs
  Expression of four long noncoding RNA (lncRNA): less than −50 fold
[1]; [8]
  ATP6V0D2 expression level, increase: 30.07 times
  IST1 expression level, increase: 15.72 times
[1]; [9]
  ADAMDEC1 expression level, reduced by: 43.55 times
  DEC1 expression level, reduced by: 28.35 times
  NT5E expression level, reduced by: 12.6 times
  STAP1 expression level, reduced by: 12.79 times
[2]
  Therapeutic effect on accumulation of amyloid in the brain: significantly improved therapeutic effect
[3]
  Aβ1-42 expression (ELISA, medium): decrease
[4]; FIG. 5B
  Aβ aggregation: effectively reduces
  Phosphorylation of Tau protein: effectively reduces
[4]; FIG. 5C
  Expression level of miRNA-29b-2-5p: increased significantly
[4]; FIG. 5D
  Aggregation of Aβ 1-42 (protein levels): decreased
  Protein expression of phosphorylated Tau protein: decreased
[5]; 3xTg AD mice, either dose of n-BP (60 or 120 mg/kg)
  Aβ accumulation in the hippocampus (Aβ1-42 antibody): significantly decreased
[5]; 14-month-old 3xTg AD mice, 120 mg n-BP/kg, vs vehicle
  Aβ1-42 accumulation in the brain (immunostaining): significantly reduced
[6]
  Cumate expression / fluorescence of C6-C99 cells: did not affect; also recorded: does not affect the fluorescence of C6-C99
[7]
  Expression levels of other AD-related genes BACE1, PSEN2, APOE3 and APOE4: without significant difference
  PSEN1 expression (real-time PCR): 58.10%±29.28%
  miR-29b-2-5p expression: 12.38 fold
